Data published in ChEMBL document CHEMBL3885881, “DrugMatrix”.

Species on record: Rattus norvegicus
Assay: DrugMatrix - Regimen: Daily Repeat
Assay type: toxicity, organism-based, Sprague-Dawley
Parameters: regimen Daily Repeat, gender Male, age 6-8 weeks
Settings: in vivo, po, route oral GAVAGE, vehicle .5 % CMC; for ABSOLUTE BASOPHIL / ABSOLUTE EOSINOPHIL / ABSOLUTE LYMPHOCYTE / ABSOLUTE MONOCYTE / ABSOLUTE SEGMENTED NEUTROPHIL / BASOPHIL / EOSINOPHIL / ERYTHROCYTE COUNT / HEMATOCRIT / HEMOGLOBIN / LEUKOCYTE COUNT / LYMPHOCYTE / MEAN CORPUSCULAR HEMOGLOBIN / MEAN CORPUSCULAR HEMOGLOBIN CONCENTRATION / MEAN CORPUSCULAR VOLUME / MONOCYTE / NEUTROPHIL / NUCLEATED RED BLOOD CELLS / PLATELET COUNT: tissue Blood; for ALANINE AMINOTRANSFERASE / ALBUMIN / ALKALINE PHOSPHATASE / ASPARTATE AMINOTRANSFERASE / BLOOD UREA NITROGEN / CARBON DIOXIDE / CHLORIDE / CHOLESTEROL / CREATINE PHOSPHOKINASE / CREATININE / GLUCOSE / LACTATE DEHYDROGENASE / LIPASE / PHOSPHORUS / POTASSIUM / SODIUM / TOTAL BILIRUBIN / TOTAL PROTEIN / URIC ACID: tissue Plasma
[1] = 0 mg/kg, 72 h, dose level Control, time 3 day
[2] = 0 mg/kg, 120 h, dose level Control, time 5 day
[3] = 150 mg/kg, 72 h, dose level Low, time 3 day

C[C@]1(Cn2ccnn2)[C@H](C(=O)O)N2C(=O)C[C@H]2S1(=O)=O [TAZOBACTAM]
ABSOLUTE BASOPHIL [1]: 0 CELLS/uL | ABSOLUTE EOSINOPHIL [1]: 222.83 CELLS/uL | ABSOLUTE LYMPHOCYTE [1]: 14453 CELLS/uL | ABSOLUTE MONOCYTE [1]: 0 CELLS/uL | ABSOLUTE SEGMENTED NEUTROPHIL [1]: 1490.83 CELLS/uL | BASOPHIL [1]: 0% | EOSINOPHIL [1]: 1.33% | ERYTHROCYTE COUNT [1]: 5.76 x10E6/uL | HEMATOCRIT [1]: 36.52% | HEMOGLOBIN [1]: 13.45 G/DL | LEUKOCYTE COUNT [1]: 16.17 x10E3/uL | LYMPHOCYTE [1]: 89.33% | MEAN CORPUSCULAR HEMOGLOBIN [1]: 23.37 pg | MEAN CORPUSCULAR HEMOGLOBIN CONCENTRATION [1]: 36.85 G/DL | MEAN CORPUSCULAR VOLUME [1]: 63.47 fL | MONOCYTE [1]: 0% | NEUTROPHIL [1]: 9.33% | NUCLEATED RED BLOOD CELLS [1]: 0 /100WBC | PLATELET COUNT [1]: 1239.5 x10E3/uL | ALANINE AMINOTRANSFERASE [1]: 43.83 u/L | ALBUMIN [1]: 4.27 G/DL | ALKALINE PHOSPHATASE [1]: 398.83 u/L | ASPARTATE AMINOTRANSFERASE [1]: 81.17 u/L | BLOOD UREA NITROGEN [1]: 17.67 mg/dL | CARBON DIOXIDE [1]: 27.5 mmol/L | CHLORIDE [1]: 99.17 MEQ/L | CHOLESTEROL [1]: 74 mg/dL | CREATINE PHOSPHOKINASE [1]: 331.5 u/L | CREATININE [1]: 0.2 mg/dL | GLUCOSE [1]: 171.33 mg/dL | LACTATE DEHYDROGENASE [1]: 241.67 u/L | LIPASE [1]: 9.5 u/L | PHOSPHORUS [1]: 12.25 mg/dL | POTASSIUM [1]: 6.33 MEQ/L | SODIUM [1]: 141.28 MEQ/L | TOTAL BILIRUBIN [1]: 0.15 mg/dL | TOTAL PROTEIN [1]: 5.98 G/DL | URIC ACID [1]: 1.63 mg/dL | ABSOLUTE BASOPHIL [2]: 0 CELLS/uL | ABSOLUTE EOSINOPHIL [2]: 148.67 CELLS/uL | ABSOLUTE LYMPHOCYTE [2]: 16020.5 CELLS/uL | ABSOLUTE MONOCYTE [2]: 29.17 CELLS/uL | ABSOLUTE SEGMENTED NEUTROPHIL [2]: 1468.33 CELLS/uL | BASOPHIL [2]: 0% | EOSINOPHIL [2]: 1% | ERYTHROCYTE COUNT [2]: 5.78 x10E6/uL | HEMATOCRIT [2]: 35.77% | HEMOGLOBIN [2]: 13.4 G/DL | LEUKOCYTE COUNT [2]: 17.67 x10E3/uL | LYMPHOCYTE [2]: 90.5% | MEAN CORPUSCULAR HEMOGLOBIN [2]: 23.22 pg | MEAN CORPUSCULAR HEMOGLOBIN CONCENTRATION [2]: 37.47 G/DL | MEAN CORPUSCULAR VOLUME [2]: 61.92 fL | MONOCYTE [2]: 0.17% | NEUTROPHIL [2]: 8.33% | NUCLEATED RED BLOOD CELLS [2]: 0.17 /100WBC | PLATELET COUNT [2]: 1255.5 x10E3/uL | ALANINE AMINOTRANSFERASE [2]: 46.5 u/L | ALBUMIN [2]: 4.38 G/DL | ALKALINE PHOSPHATASE [2]: 336 u/L | ASPARTATE AMINOTRANSFERASE [2]: 76.5 u/L | BLOOD UREA NITROGEN [2]: 20 mg/dL | CARBON DIOXIDE [2]: 27.5 mmol/L | CHLORIDE [2]: 101 MEQ/L | CHOLESTEROL [2]: 71.33 mg/dL | CREATINE PHOSPHOKINASE [2]: 231.83 u/L | CREATININE [2]: 0.37 mg/dL | GLUCOSE [2]: 168.83 mg/dL | LACTATE DEHYDROGENASE [2]: 174 u/L | LIPASE [2]: 8.67 u/L | PHOSPHORUS [2]: 11.48 mg/dL | POTASSIUM [2]: 6.82 MEQ/L | SODIUM [2]: 143.8 MEQ/L | TOTAL BILIRUBIN [2]: 0.2 mg/dL | TOTAL PROTEIN [2]: 5.98 G/DL | URIC ACID [2]: 1.83 mg/dL | ABSOLUTE BASOPHIL [3]: 0 CELLS/uL | ABSOLUTE EOSINOPHIL [3]: 82.67 CELLS/uL | ABSOLUTE LYMPHOCYTE [3]: 6416 CELLS/uL | ABSOLUTE MONOCYTE [3]: 0 CELLS/uL | ABSOLUTE SEGMENTED NEUTROPHIL [3]: 534.67 CELLS/uL | BASOPHIL [3]: 0% | EOSINOPHIL [3]: 1% | ERYTHROCYTE COUNT [3]: 5.07 x10E6/uL | HEMATOCRIT [3]: 32.53% | HEMOGLOBIN [3]: 12.5 G/DL | LEUKOCYTE COUNT [3]: 7.03 x10E3/uL | LYMPHOCYTE [3]: 91.67% | MEAN CORPUSCULAR HEMOGLOBIN [3]: 24.63 pg | MEAN CORPUSCULAR HEMOGLOBIN CONCENTRATION [3]: 38.43 G/DL | MEAN CORPUSCULAR VOLUME [3]: 64.17 fL | MONOCYTE [3]: 0% | NEUTROPHIL [3]: 7.33% | NUCLEATED RED BLOOD CELLS [3]: 0 /100WBC | PLATELET COUNT [3]: 1184.33 x10E3/uL | ALANINE AMINOTRANSFERASE [3]: 52.67 u/L | ALBUMIN [3]: 4.23 G/DL | ALKALINE PHOSPHATASE [3]: 410.33 u/L | ASPARTATE AMINOTRANSFERASE [3]: 79.67 u/L | BLOOD UREA NITROGEN [3]: 16.67 mg/dL | CARBON DIOXIDE [3]: 24.33 mmol/L | CHLORIDE [3]: 104 MEQ/L | CHOLESTEROL [3]: 78 mg/dL | CREATINE PHOSPHOKINASE [3]: 280.33 u/L | CREATININE [3]: 0.2 mg/dL | GLUCOSE [3]: 152.33 mg/dL | LACTATE DEHYDROGENASE [3]: 134.33 u/L | LIPASE [3]: 8 u/L | PHOSPHORUS [3]: 11.47 mg/dL | POTASSIUM [3]: 6.02 MEQ/L | SODIUM [3]: 144.87 MEQ/L | TOTAL BILIRUBIN [3]: 0.2 mg/dL | TOTAL PROTEIN [3]: 5.9 G/DL | URIC ACID [3]: 1.03 mg/dL
